Earlier results, collected in US20040062754A1, “Photopheresis treatment of chronic HCV infections” (priority 1996, published 2004).

Key:
[1] = system: progressive systemic sclerosis; settings: 56 patients enrolled
[2] = system: hepatitis C virus

CC(C)(S)[C@@H](N)C(=O)O [D-penicillamine]
response rate [1]: 32%

Nc1nc2c(ncn2COCCO)c(=O)[nH]1 [acyclovir]
benefit in chronic hepatitis C ([2]; in vivo): little benefit

interferon alpha-2b, recombinant
sustained response off treatment ([2]; six month course, 3 million units three times a week): 18%

interferon-alpha
relapse rate after interferon therapy ([2]; in vivo): 80-85% | patients with normal LFTs and nondetectable HCV RNA by RT-PCR seven years later ([2]; ten patients, subcutaneous injections for up to a year): Six
